The text below walks through data of patent US12642870B2, “Compositions and methods for delivery of nucleic acids” (Poseida Therapeutics, Inc., priority 2020, dated 2026).

Series [1] deals with BALB/C mice. Nature of the series: In vivo intramuscular LNP delivery of fLuciferase mRNA, bioluminescent imaging. As to conditions: intramuscular 20 μg fLuciferase mRNA, right hind limb, BLI at 4 hr; LNP compound/DOPE/Cholesterol/DMG-PEG2000 33.5/32.0/33.5/1.0, lipid:RNA 25:1. The protocol:
Adult female BALB/C mice (n=2/group) were intramuscularly administered in the right hind limb of each mouse 20 μg of 5′-CleanCap-fLuciferase mRNA (TriLink Biotech) formulated with LNP composition comprising COMPOUND 2 as prepared according to Example 2 in the following percentages shown in Table 16:
The location and extent of luciferase expression in treated and untreated mice were determined at 4 hr and 24 hr by bioluminescent imaging (BLI) of anesthetized mice using an IVIS Lumina in vivo imaging system (Perkin Elmer) according to the manufacturer's instructions. Briefly, mice were anesthetized using isoflurane in oxygen, and placed supine on a heated stage. Mice were then administered D-luciferin (Perkin-Elmer #122799) IP, and BLI was performed.
In another experiment, adult female BALB/C mice (n=2/group) were intramuscularly administered in the right hind limb of each mouse 20 μg of 5′-CleanCap-fLuciferase mRNA (TriLink Biotech) formulated with LNP composition comprising one of COMPOUNDS 3-8 as prepared according to Example 3 in the following percentages shown in Table 18:
The location and extent of luciferase expression in treated and untreated mice were determined at 4 hr by bioluminescent imaging (BLI) of anesthetized mice as described above.

A short description of series [2]: Physical characterisation of DNA-containing LNPs (DLS, NTA, zeta potential). Type of series: physicochemical. As to conditions: nano-pB-EF1a-GFP DNA LNPs: compound/DOPE/Cholesterol/DMG-PEG2000 38.0/50.0/10.0/2.0, lipid:DNA 45:1 (w/w). The protocol:
LNP compositions of the present disclosure comprising DNA, a nanoplasmid encoding a piggyBac transposon, wherein the piggyBac transposon comprised GFP under control of the EF1a promoter (herein referred to as the nano-pB-EF1a-GFP), and one of COMPOUNDS 1-8 were prepared as described in Example 3 by combining one of COMPOUNDS 1-8, the phospholipid DOPE, the structural lipid cholesterol (Chol) and 1,2-dimyristoyl-sn-glycerol methoxypolyethylene glycol (DMG-PEG2000) in the following percentages in Table 20: […]

The nature of series [3]: Physical characterisation of mRNA-containing LNPs (DLS, NTA, zeta potential). Type of series: physicochemical. The settings on record: Fluc mRNA LNPs: compound/DOPE/Cholesterol/DMG-PEG2000 41.44/45.85/10/2.7, lipid:RNA 40:1 (w/w). As to the method:
A series of ten multi-component LNP compositions of the present disclosure comprising exemplary compounds of Formula (I) was prepared by combining various percentages of an exemplary compound of Formula (I), the phospholipid DOPE, the structural lipid cholesterol (Chol) and 1,2-dimyristoyl-sn-glycerol methoxypolyethylene glycol (DMG-PEG2000; Avanti Polar Lipids, Alabaster, Alabama, USA).
(§1) Individual 25 mg/ml stock solutions were prepared by solubilizing the lipids in 200-proof HPLC-grade ethanol and stock solutions were stored at −80° C. until formulated. At the time of formulation, the lipid stock solutions were briefly allowed to equilibrate to room temp and then placed on a hot plate maintained at a temperature range of 50-55° C.
A 1 mg/mi solution of the desired mRNA to be incorporated into the LNPs was added to 150 mM sodium acetate buffer (pH 5.2) to form a stock solution and kept on ice. The lipid phase was mixed with the aqueous m RNA phase inside a microfluidic chip using a NanoAssemblr® instrument (Precision Nanosystems, Vancouver, BC, Canada) according to the manufacturer's instructions to form LNP compositions comprising encapsulated mRNAs.
(§2) The resultant mRNA LNP compositions were then transferred to a Repligen Float-A-Lyzer dialysis device—having a molecular weight cut off (MWCO) of 8-10 kDa (Spectrum Chemical Mfg. Corp, CA, USA) and processed by dialysis against phosphate buffered saline (PBS) (dialysate:dialysis buffer volume at least 1:200 v/v), pH 7.4 overnight at 4° C. (or alternatively room temperature for at least 4 hours), to remove the 25% ethanol and achieve a complete buffer exchange. In some experiments the LNPs were further concentrated by in an Amicon® Ultra-4 centrifugal filter unit, MWCO-30 kDa (Millipore Sigma, USA) spun at ˜4100×g in an ultracentrifuge. The mRNA LNPs were then stored at 4° C. until further use.
A series of multicomponent LNP compositions comprising one of COMPOUNDS 1-8 described in Example 1 and the mRNA encoding flue was prepared according to Example 2 and the physical characteristics of the resulting LNPs were analyzed.
In a separate experiment, LNP compositions of the present disclosure comprising mRNA encoding firefly luciferase (hereafter “Fluc”; TriLink) and COMPOUNDS 1-8 were prepared as described in Example 2 by combining one of COMPOUNDS 1-8, the phospholipid DOPE, the structural lipid cholesterol (Chol) and 1,2-dimyristoyl-sn-glycerol methoxypolyethylene glycol (DMG-PEG2000) in the percentages presented in Table 8: […]

The nature of series [4]: Particle size and PDI of hand-mixed mRNA or DNA LNPs. Type of series: physicochemical. The settings on record: for PDI DNA / Particle Size (nm) DNA: hand-mixed DNA LNPs: compound/DOPE/Cholesterol/DMG-PEG2000 38/50/10.0/2.0, lipid:DNA 45:1; for PDI RNA / Particle Size (nm) RNA: hand-mixed mRNA LNPs: compound/DOPE/Cholesterol/DMG-PEG2000 41.44/45.85/10/2.7, lipid:RNA 40:1. The protocol:
LNP compositions of the present disclosure comprising exemplary compounds of Formula (I) were prepared by combining various percentages of an exemplary compound of Formula (I), the phospholipid DOPE, the structural lipid cholesterol (Chol) and 1,2-dimyristoyl-sn-glycerol methoxypolyethylene glycol (DMG-PEG2000; Avanti Polar Lipids, Alabaster, Alabama, USA).
as §1
A 1 mg/ml solution of the desired mRNA or DNA to be incorporated into the LNPs was added to 150 mM sodium acetate buffer (pH 5.2) to form a stock solution and kept on ice. The aqueous mRNA or DNA was then added to the lipids as shown in Table 25 or 26 and hand-mixed vigorously with a single channel pipettor.
as §2, with “resultant mRNA or DNA LNP compositions” for “resultant mRNA LNP compositions”, “The mRNA and DNA LNPs were” for “The mRNA LNPs were”
LNP compositions of the present disclosure comprising mRNA or DNA encoding firefly luciferase (hereafter “Flue”; TriLink) and COMPOUNDS 9-21 were prepared as described in Example 14 by combining one of COMPOUNDS 9-21, the phospholipid DOPE, the structural lipid cholesterol (Chol) and 1,2-dimyristoyl-sn-glycerol methoxypolyethylene glycol (DMG-PEG2000) in the percentages presented in Tables 27 and 28:
The physical characteristics of the resulting LNPs were analyzed.

SMILES strings stand for the structures.

For the compound `CC(C)C(CCC(C)C(CCC1CCC(C(=O)NC2CCC(CC3CCC(NC(=O)C4CCC(CCC(SCCN(C)C)C(C)CCC(SCCN(C)C)C(C)C)C(SCCN(C)C)C4)CC3)CC2)CC1SCCN(C)C)SCCN(C)C)SCCN(C)C` (stereo not shown) [Compound 5], the “Avg IM flux n = 2” value in series [1] stood at 2.12E+5. Further, in series [2], the “Diameter (DLS; nm)” value is recorded as 82.0 nm, the “Diameter (NTA; nm)” value is listed as 85.8 nm, the PDI was found to be 0.168 and the “Total Particles/ml” value was 2.31E+11 Particles/ml. Moreover, the “Zeta Potential (mV)” value in series [2] is 0.21 mV. In addition, in series [3], the “Diameter (DLS; nm)” value was 91.8 nm, the “Diameter (NTA; nm)” value was determined as 84.4 nm, the PDI stood at 0.389 and the “Total Particles/ml” value was found to be 7.03E+10 Particles/ml. Also, the “Zeta Potential (mV)” value in series [3] turned out to be 0.18 mV.
For the compound `CC(C)C(CCC(C)C(CCC1CC2C(=O)N(c3ccc(N4C(=O)C5CC(CCC(SCCN(C)C)C(C)CCC(SCCN(C)C)C(C)C)C(SCCN(C)C)CC5C4=O)cc3)C(=O)C2CC1SCCN(C)C)SCCN(C)C)SCCN(C)C` (stereo not shown) [Compound 7], the “Avg IM flux n = 2” value in series [1] was found to be 2.4E+5. In addition, in series [2], the “Diameter (DLS; nm)” value is on record as 110.2 nm, the “Diameter (NTA; nm)” value is given as 90.8 nm, the PDI is reported as 0.224 and the “Total Particles/ml” value is 5.52E+11 Particles/ml. Further, in series [2], the “Zeta Potential (mV)” value turned out to be 0.96 mV. In series [3], the “Diameter (DLS; nm)” value came out at 123.5 nm, the “Diameter (NTA; nm)” value is 108.4 nm, the PDI came out at 0.113 and the “Total Particles/ml” value is on record as 5.10E+10 Particles/ml. Also, in series [3], the “Zeta Potential (mV)” value was −0.29 mV.
Take `CC(C)C(CCC1CC2C(=O)N(c3ccc(N4C(=O)C5CC(CCC(SCCN(C)C)C(C)C)C(SCCN(C)C)CC5C4=O)cc3)C(=O)C2CC1SCCN(C)C)SCCN(C)C` (stereo not shown) [Compound 8]: the “Avg IM flux n = 2” value in series [1] amounted to 8.31E+4.
`CC(C)C(CCC(C)C(CCC1CCC(C(=O)OCCCCCCOC(=O)C2CCC(CCC(SCCN(C)C)C(C)CCC(SCCN(C)C)C(C)C)C(SCCN(C)C)C2)CC1SCCN(C)C)SCCN(C)C)SCCN(C)C` (stereo not shown) [Compound 10]: in series [4], the “PDI DNA” value is given as 0.403, the “Particle Size (nm) DNA” value is on record as 291.2 nm, the “PDI RNA” value is 0.120 and the “Particle Size (nm) RNA” value is listed as 254.1 nm.
For `CC(C)C(CCC(C)C(CCC1CCC(C(=O)OCCCCCCCCCCCCOC(=O)C2CCC(CCC(SCCN(C)C)C(C)CCC(SCCN(C)C)C(C)C)C(SCCN(C)C)C2)CC1SCCN(C)C)SCCN(C)C)SCCN(C)C` (stereo not shown) [Compound 11], in that order: 0.366, 511.8 nm, 0.156 and 270.4 nm.
On to `CC(C)C(CCC(C)C(CCC1CCC(C(=O)OCCCCCCCCCCCCCCCCCCCCOC(=O)C2CCC(CCC(SCCN(C)C)C(C)CCC(SCCN(C)C)C(C)C)C(SCCN(C)C)C2)CC1SCCN(C)C)SCCN(C)C)SCCN(C)C` (stereo not shown) [Compound 12], for which, in series [4], the “PDI DNA” value worked out at 0.251, the “Particle Size (nm) DNA” value amounted to 228.0 nm, the “PDI RNA” value was 0.216 and the “Particle Size (nm) RNA” value was determined as 162.7 nm.
For the compound `CC(C)C(CCC1CCC(C(=O)OCCCCCCOC(=O)C2CCC(CCC(SCCN(C)C)C(C)C)C(SCCN(C)C)C2)CC1SCCN(C)C)SCCN(C)C` (stereo not shown) [Compound 14], in series [4], the “PDI DNA” value worked out at 0.272, the “Particle Size (nm) DNA” value was 392.2 nm, the “PDI RNA” value was 0.249 and the “Particle Size (nm) RNA” value was determined as 222.5 nm.
The corresponding values for `CC(C)C(CCC1CCC(C(=O)OCCCCCCCCCCCCOC(=O)C2CCC(CCC(SCCN(C)C)C(C)C)C(SCCN(C)C)C2)CC1SCCN(C)C)SCCN(C)C` (stereo not shown) [Compound 15] are 0.201, 375.6 nm, 0.208 and 267.1 nm.
For `CC(C)C(CCC1CCC(C(=O)OCCCCCCCCCCCCCCCCCCCCOC(=O)C2CCC(CCC(SCCN(C)C)C(C)C)C(SCCN(C)C)C2)CC1SCCN(C)C)SCCN(C)C` (stereo not shown) [Compound 16], in that order: 0.277, 149.8 nm, 0.327 and 188.8 nm.
The corresponding values for `CC(C)C(CCC(C)C(CCC1CCC(C(=O)OCCCCCCSCCCCCCCCSCCCCCCOC(=O)C2CCC(CCC(SCCN(C)C)C(C)CCC(SCCN(C)C)C(C)C)C(SCCN(C)C)C2)CC1SCCN(C)C)SCCN(C)C)SCCN(C)C` (stereo not shown) [Compound 20] are 0.189, 229.6 nm, 0.211 and 221.0 nm.
On to `CC(C)C(CCC1CCC(C(=O)OCCCCCCSCCCCCCCCSCCCCCCOC(=O)C2CCC(CCC(SCCN(C)C)C(C)C)C(SCCN(C)C)C2)CC1SCCN(C)C)SCCN(C)C` (stereo not shown) [Compound 21], for which, in series [4], the “PDI DNA” value amounted to 0.230, the “Particle Size (nm) DNA” value is 161.1 nm, the “PDI RNA” value is reported as 0.273 and the “Particle Size (nm) RNA” value was found to be 144.9 nm.
